What is called Ki is a dissociation constant, usually derived from enzyme kinetics or from competition with a known ligand. Higher therefore signals weaker binding.

These results are taken from patent publication US8008296B2, “Histamine H3 receptor agents, preparation and therapeutic uses” (Eli Lilly and Company, priority 2005, dated 2011).

For this test, the target named is T1, human histamine 3 receptor (H3R) (Homo sapiens, UniProt Q9Y5N1).
T1 construct: expressed in transfected cells; membranes
T1 sequence (Q9Y5N1 whole entry): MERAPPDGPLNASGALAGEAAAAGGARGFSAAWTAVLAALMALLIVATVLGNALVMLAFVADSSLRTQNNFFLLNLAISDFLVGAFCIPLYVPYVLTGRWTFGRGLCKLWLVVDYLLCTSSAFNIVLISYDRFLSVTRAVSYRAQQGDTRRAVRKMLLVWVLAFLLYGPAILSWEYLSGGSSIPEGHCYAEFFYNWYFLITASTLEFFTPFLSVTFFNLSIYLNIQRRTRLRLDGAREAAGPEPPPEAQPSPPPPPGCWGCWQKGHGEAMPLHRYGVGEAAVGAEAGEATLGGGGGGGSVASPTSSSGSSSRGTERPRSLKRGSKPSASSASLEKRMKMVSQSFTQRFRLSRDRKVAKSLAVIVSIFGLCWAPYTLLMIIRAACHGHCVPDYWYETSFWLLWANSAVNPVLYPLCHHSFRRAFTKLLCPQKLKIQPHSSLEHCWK
Nature of the test: Histamine H3 Receptor Binding Assay (competitive inhibition SPA, [3H] α-methylhistamine, HEK293 H3R8 membranes). From the text: The compounds of the present invention can readily be evaluated by using a competitive inhibition Scintillation Proximity Assay (SPA) based on a H3R binding assay using [3H] a methylhistamine as ligand. Stable cell lines, including but not limited to HEK can be transfected with cDNA coding for H3R to prepare membranes used for the binding assay. The technique is illustrated below (Preparation of Histamine Receptor Subtype Membranes) for the histamine receptor subtypes.
cDNA for the human histamine 3 receptor is cloned and expressed as described in (A. Preparation H1R membranes), above. Transfected cells are selected using G418 ([…]), grown, and tested for histamine binding by the SPA described above. For total binding, cells are assayed in a SPA reaction described above containing 50 mM Tris-HCL (assay buffer), pH 7.6, 1 mg wheat germ agglutinin SPA beads (Amersham Pharmacia Biotech, #RPNQ0001), and 1 nM (3H)-n-alpha-methylhistamine (NEN, NET1027) (total volume per well=200 μl). Thioperimide is added to determine non-specific binding. Several clones are selected as positive for binding, and a single clone (H3R8) is used to prepare membranes for binding studies described above. Five micrograms of protein is used per well in the SPA receptor-binding assay. […]

As to `O=C(c1ccc(Sc2ccncn2)cc1)N1CCCC1CN1CCCC1` (centres unmarked), affinity was put at a Ki of 0.0117 µM.
Take `CCCCNc1ccc(C(=O)N2CCCC2CN2CCCC2)cc1` (centres unmarked): the affinity, expressed as Ki, was 0.0216 µM.
